Reference: the supplement of paper PMC11781733
Counter-ions that a name gives are not always drawn.

Legend:
Settings in all cases: exposure time: 15 min to 3 h acute
[1] = test system: Dugesia japonica; test: noxious heat displacement strength vs vehicle (% change vs vehicle); higher = higher incidence or increase relative to vehicle control
Summary of the method: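 Values are the median percent change in displacement strength under noxious heat, scored by automated object tracking in the scrunching assay with intact, fasted Dugesia japonica. Each worm was placed alone in a well of a 48-well plate in 200 μL and tested 15 min to 3 h after exposure in 0.5% DMSO or water vehicle. Eight worms per concentration per plate were run in technical triplicate (n = 24), with each worm normalised to the plate's vehicle median and worms that crawled out excluded.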

[2] = test system: Dugesia japonica; test: loss of heat-induced scrunching incidence (% planarians (vehicle-normalised)); higher = higher incidence or increase relative to vehicle control
Summary of the method: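 Planarians of the species D. japonica, fasted for 5–7 days, were placed singly in wells of sealed 48-well plates in 200 μL and exposed to at least 5 concentrations, 24 worms per concentration in technical triplicates. Scrunching in response to a noxious heat stimulus was tested within 15 minutes–3 hours, and any worm that crawled out was excluded. The reported figure is the incidence of non-scrunching worms, normalised to vehicle controls on the same plate. This incidence is given ×100, with negatives set to 0.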

[3] = test system: Dugesia japonica; test: loss of phototaxis incidence (% planarians (vehicle-normalised)); higher = higher incidence or increase relative to vehicle control
Summary of the method: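 Loss of phototaxis was scored as a yes/no endpoint in intact, fasted Dugesia japonica, one per well of a 48-well plate in 200 μL. Worms were tested 15 min to 3 h after exposure in 0.5% DMSO or water vehicle, using automated object tracking. Eight worms per concentration per plate were run in technical triplicate (n = 24). The incidence rate ×100 was normalised to in-plate vehicle controls, negatives were set to 0, and worms that crawled out were excluded.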

[4] = test system: Dugesia japonica; test: hyperkinesis incidence (% planarians (vehicle-normalised)); higher = higher incidence or increase relative to vehicle control
Summary of the method: (§1)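 Single D. japonica planarians, fasted 5–7 days, sat in 200 μL per well of sealed 48-well plates and were screened 15 minutes–3 hours after exposure to at least 5 concentrations. Shapes were scored by hand and blind. The reported value is the incidence of a particular shape, or of any abnormal shape, ×100, set against in-plate vehicle controls with negatives taken as 0.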

[5] = test system: Dugesia japonica; test: crawl-out incidence (% planarians); higher = higher incidence or increase relative to vehicle control
[6] = test system: Dugesia japonica; test: speed in dark vs vehicle (% change vs vehicle); higher = higher incidence or increase relative to vehicle control
Summary of the method: (§2)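 For each worm, crawling speed under dark or blue-light conditions was tracked automatically and expressed against the median of that plate's vehicle worms, and the reported value is the median percent change. The worms were intact, fasted Dugesia japonica held one per well in 200 μL in a 48-well plate, exposed in 0.5% DMSO or water vehicle and tested from 15 min to 3 h afterwards. Eight were used per concentration per plate across technical triplicate (n = 24), excluding any that crawled out.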

[7] = test system: Dugesia japonica; test: speed second 30 s blue light vs vehicle (% change vs vehicle); higher = higher incidence or increase relative to vehicle control
Summary of the method: as §2

[8] = test system: Dugesia japonica; test: total locomotor bursts minus vehicle (bursts difference vs vehicle); higher = higher incidence or increase relative to vehicle control
Summary of the method: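 Planarians of the species Dugesia japonica, fasted beforehand, received half- or quarter-log concentration series in 0.5% DMSO or water, one animal per well of a sealed 48-well plate holding 200 μL solution. They were tested 15 min–3 h after exposure in technical triplicates totalling n = 24. Each animal's count of total locomotor bursts, an unstimulated behaviour obtained by image-based object tracking, had the plate vehicle-control median subtracted without ×100 scaling. The figure given is the median normalised response, with crawled-out worms excluded.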

[9] = test system: Dugesia japonica; test: pharynx extrusion incidence (% planarians (vehicle-normalised)); higher = higher incidence or increase relative to vehicle control
Summary of the method: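 Pharynx extrusion was scored manually and blind as a body-shape category in intact, fasted Dugesia japonica, one per well of a 48-well plate in 200 μL. Worms were tested 15 min to 3 h after exposure in 0.5% DMSO or water vehicle. Eight worms per concentration per plate were run in technical triplicate (n = 24). The incidence rate ×100 was normalised to in-plate vehicle controls, negatives were set to 0, and worms that crawled out were excluded.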

[10] = test system: Dugesia japonica; test: corkscrew incidence (% planarians (vehicle-normalised)); higher = higher incidence or increase relative to vehicle control
Summary of the method: as §1

[11] = test system: Dugesia japonica; test: resting fraction in blue light vs vehicle (difference in fraction x100 vs vehicle); higher = higher incidence or increase relative to vehicle control
Summary of the method: (§3)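 The resting fraction, in the dark or under blue light, comes from automated tracking of intact, fasted Dugesia japonica. Worms sat singly in wells of a 48-well plate in 200 μL and were tested 15 min to 3 h after exposure in 0.5% DMSO or water vehicle. The plate's vehicle median was subtracted from each worm and the difference multiplied by 100, then the median was reported after excluding worms that crawled out.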

[12] = test system: Dugesia japonica; test: C-shape incidence (% planarians (vehicle-normalised)); higher = higher incidence or increase relative to vehicle control
Summary of the method: as §1

[13] = test system: Dugesia japonica; test: speed first 30 s blue light vs vehicle (% change vs vehicle); higher = higher incidence or increase relative to vehicle control
Summary of the method: as §2

[14] = test system: Dugesia japonica; test: stickiness incidence (% planarians (vehicle-normalised)); higher = higher incidence or increase relative to vehicle control
Summary of the method: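 Stickiness was scored as a yes-or-no outcome in fasted Dugesia japonica planarians, and incidence was normalised to the vehicle incidence on the same plate. Each worm sat alone in a well of a sealed 48-well plate holding 200 μL of solution and was tested 15 min–3 h after exposure to half- or quarter-log concentration series, with 0.5% DMSO or water as vehicle. Technical triplicates were pooled (n = 24), negative values were set to 0, values were multiplied by 100, and worms that crawled out were excluded.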

[15] = test system: Dugesia japonica; test: contracted body shape incidence (% planarians (vehicle-normalised)); higher = higher incidence or increase relative to vehicle control
Summary of the method: as §1

[16] = test system: Dugesia japonica; test: anxiety (time in outer well region) vs vehicle (% change vs vehicle); higher = higher incidence or increase relative to vehicle control
Summary of the method: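 The value is the median normalized time that planarians spent in the outer portion of the well. D. japonica worms, fasted 5–7 days, were held singly in 200 μL per well of sealed 48-well plates at at least 5 concentrations (n = 24 per concentration) and screened within 15 minutes–3 hours. Each worm's response was divided by, or reduced by, the plate vehicle median and then multiplied by 100, and worms that crawled out were left out.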

[17] = test system: Dugesia japonica; test: any abnormal body shape incidence (% planarians (vehicle-normalised)); higher = higher incidence or increase relative to vehicle control
Summary of the method: as §1

[18] = test system: Dugesia japonica; test: resting fraction in dark vs vehicle (difference in fraction x100 vs vehicle); higher = higher incidence or increase relative to vehicle control
Summary of the method: as §3

Compound	noxious heat displacement strength [1]	loss of heat-induced scrunching incidence [2]	loss of phototaxis incidence [3]	hyperkinesis incidence [4]	crawl-out incidence [5]	speed in dark [6]	speed second 30 s blue light [7]	total locomotor bursts minus vehicle [8]	pharynx extrusion incidence [9]	corkscrew incidence [10]	resting fraction in blue light [11]	C-shape incidence [12]	speed first 30 s blue light [13]	stickiness incidence [14]	contracted body shape incidence [15]	anxiety [16]	any abnormal body shape incidence [17]	resting fraction in dark [18]
O=C(O)C(=O)O [oxalic acid] (1000 µM)	-57	83.3	54.2	0	0	-53.2	-90.4	4	0	0	63.9	41.7	-88.1	≤ 0	50	-19.2	62.5	60.5
CN1CCN(CCCN2c3ccccc3Sc3ccc(Cl)cc32)CC1 [prochloroperazine] (3.16 µM)	-46.2	45.8	17.4	12.5	4.17	-37.4	-55.6	14.8	0	0	-3.15	0	-37.9	4.17	4.17	19	16.7	15.2
CN1CCN(CCCN2c3ccccc3Sc3ccc(Cl)cc32)CC1 [prochloroperazine] (10 µM)	-55.5	66.7	50	25	25	-74.9	-85.8	12.5	0	0	52.9	12.5	-81.4	4.17	4.17	21.9	37.5	38.3
CN1CCN(CCCN2c3ccccc3Sc3ccc(Cl)cc32)CC1 [prochloroperazine] (31.6 µM)	-47.9	65.2	63.2	26.1	20.8	-65.5	-83.6	-3	0	4.35	75.3	34.8	-89.8	≤ 0	21.7	24	73.9	60.9
CN1CCN(CCCN2c3ccccc3Sc3ccc(Cl)cc32)CC1 [prochloroperazine] (100 µM)	-41.6	75	76.5	0	29.2	-72.3	-92.9	0.25	0	5	82.2	35	-91.1	≤ 0	75	-100	70	77
CNCC[C@H](Oc1cccc2ccccc12)c1cccs1 [s-duloxetine] (3.16 µM)	-40.2	25	≤ 0	0	0	70.8	68.4	-2.5	0	0	-12.5	0	167	16.7	0	12	0	-19
CNCC[C@H](Oc1cccc2ccccc12)c1cccs1 [s-duloxetine] (10 µM)	-38	8.33	50	75	0	124	34.6	-13	0	0	-12.1	0	142	≤ 0	0	-1.76	75	-32.6
CNCC[C@H](Oc1cccc2ccccc12)c1cccs1 [s-duloxetine] (31.6 µM)	-61.5	65.2	47.8	39.1	4.17	-18.7	-62.7	61	26.1	0	7.14	34.8	-45.9	≤ 0	4.35	-51.2	73.9	-4.51
CNCC[C@H](Oc1cccc2ccccc12)c1cccs1 [s-duloxetine] (100 µM)	-66.8	73.9	56.5	0	4.17	-50.6	-87.5	-4.5	65.2	0	72.3	13	-84	≤ 0	34.8	-57.1	82.6	55.5
CN[C@H]1CC[C@@H](c2ccc(Cl)c(Cl)c2)c2ccccc21 [sertraline hydrochloride] (3.16 µM)	-5.25	≤ 0	18.2	4.55	8.33	-20.1	-31.9	8	0	0	4.62	0	-25.9	4.55	0	15.3	4.55	1.05
CN[C@H]1CC[C@@H](c2ccc(Cl)c(Cl)c2)c2ccccc21 [sertraline hydrochloride] (10 µM)	27	33.3	≤ 0	0	0	24.4	0.96	-9.5	0	0	0.73	0	-16.8	4.17	0	1.96	0	-1.57
CN[C@H]1CC[C@@H](c2ccc(Cl)c(Cl)c2)c2ccccc21 [sertraline hydrochloride] (31.6 µM)	3.64	47.8	≤ 0	4.35	4.17	-31.9	-42.3	6.5	0	0	4.64	0	-36	4.35	0	1.57	4.35	-19.3
CN[C@H]1CC[C@@H](c2ccc(Cl)c(Cl)c2)c2ccccc21 [sertraline hydrochloride] (100 µM)	-27.1	21.7	4.35	91.3	4.17	7.78	-33.9	-5.25	0	0	3.91	0	-33.7	≤ 0	0	17.1	91.3	4.98
[Cl-].[Na+] [sodium chloride] (3470 µM)	-5.24	12.5	≤ 0	0	4.17	-7.38	-2.5	0.5	0	0	-8.67	0	18.8	≤ 0	0	-4.03	0	2.94
CCCCNc1c(C(=O)OCC)c(C)nc2c1cnn2CC [tracazolate hydrochloride] (3.16 µM)	-6.19	≤ 0	8.33	12.5	0	-4.2	-5.52	0.5	0	0	0.22	0	-7.17	≤ 0	0	-16.4	8.33	0
CCCCNc1c(C(=O)OCC)c(C)nc2c1cnn2CC [tracazolate hydrochloride] (10 µM)	-3.78	16.7	≤ 0	0	0	-27.1	-17.8	4.5	0	0	0	0	-24.7	≤ 0	0	-12.6	0	1.52
CCCCNc1c(C(=O)OCC)c(C)nc2c1cnn2CC [tracazolate hydrochloride] (31.6 µM)	-31.1	41.7	33.3	12.5	0	-78.9	-87.7	55.8	0	8.33	51	79.2	-90.9	≤ 0	4.17	-51.8	83.3	39.1
